Laboratory results from patent US9115159B2, “Phosphate compounds, a process for their preparation and pharmaceutical compositions containing them” (LES LABORATOIRES SERVIER, priority 2013, dated 2015).
Like-named read-outs stand apart in the source and are kept apart here.

Experiments:
[1] = Pharmacokinetic profile / in vivo conversion after oral administration to SCID mice (plasma, LC-MS/MS); parameters: species or system female SCID mice; details: female, mouse, po, lipid formulation (PEG 300/ethanol/Phosal 50PG 30/10/60)
Experimental: The pharmacokinetic profile of the phosphate compounds of formula (I) is evaluated in a lipid formulation and in aqueous solution in female SCID mice. This is compared to the pharmacokinetic profile of compounds of formula (I′) in a lipid formulation. More specifically, 4-[{[3-(6-{[(3S)-3-(morpholin-4-ylmethyl)-3,4-dihydroisoquinolin-2(1H)-yl]-carbonyl}-1,3-benzodioxol-5-yl)-5,6,7,8-tetrahydroindolizin-1-yl]carbonyl}(phenyl)-amino]phenyl disodium phosphate (also referred to as the compound of Example 1) was tested and compared to N-(4-hydroxyphenyl)-3-{6-[((3S)-3-(4-morpholinylmethyl)-3,4-dihydro-2(1H)-isoquinolinyl)carbonyl]-1,3-benzodioxol-5-yl}-N-phenyl-5,6,7,8-tetrahydro-1-indolizine carboxamide (also referred to as the drug from Example 1).
The compound of Example 1 is prepared in a mixture of anhydrous ethanol/polyethylene glycol 300/water (10/40/50, v/v/v) intended for administration by the p.o. route. The study is carried out in 2 groups of SCID mice to which the compound of Example 1 is administered under the following conditions: • Group 1: 3 mg/kg p.o. (gavage, 10 mL/kg), • Group 2: 25 mg/kg p.o. (gavage, 10 mL/kg).
Blood samples are taken at the following points in time (3 samples per animal and 3 animals for each point in time): 0.25 hr, 0.5 hr, 1 hr, 2 hrs, 6 hrs and 24 hrs after oral administration.
The compound of Example 1 is also administered by the oral route in an aqueous medium to SCID mice, under the following conditions: • Group 1: 30 mg/kg p.o. dissolved in 1 mM sodium carbonate solution (gavage, 10 mL/kg), • Group 2: 100 mg/kg p.o. in water (gavage, 10 mL/kg).
Blood samples are taken at the following points in time (3 animals for each point in time and 1 sample per animal): 0.25 hr, 0.5 hr, 1 hr, 2 hrs, 4 hrs, 6 hrs and 24 hrs after oral administration.
For all formulations of the compound of Example 1, the blood thereby collected is centrifuged and the plasma is transferred to tubes containing 1M hydrochloric acid. The plasma concentrations of the phosphate compound (prodrug) and its hydroxylated homologue (drug) are determined simultaneously using a method of liquid chromatography coupled with mass spectrometric detection (TFC-LC-MS/MS). The limit of detection for both entities is 0.5 ng/mL.
The drug from Example 1 is prepared in a mixture of anhydrous ethanol/polyethylene glycol 300/water (10/40/50, v/v/v) intended for administration by the p.o. route. The study is carried out in several groups of SCID mice to which the drug from Example 1 is administered under the following conditions: • Group 1: 3 mg/kg p.o. (gavage, 10 mL/kg), • Group 2: 30 mg/kg p.o. (gavage, 10 mL/kg), • Group 3: 25 mg/kg p.o. (gavage, 10 mL/kg), • Group 4: 100 mg/kg p.o. (gavage, 10 mL/kg).
Blood samples are taken at the following points in time (3 animals for each point in time and 3 samples per animal for Groups 1-2 and 1 sample per animal for Groups 3 and 4): • p.o.: before administration and then 0.25 hr, 0.5 hr, 0.75 hr, 1 hr, 2 hrs, 4 hrs, 6 hrs, 8 hrs, 16 hrs and 24 hrs after oral administration at 3 and 30 mg/kg, • p.o.: 0.5 hr, 2 hrs, 6 hrs, 16 hrs and 24 hrs after oral administration at 25 mg/kg and 0.5 hr, 1 hr, 2 hrs, 6 hrs, 16 hrs, 30 hrs and 48 hrs after oral administration at 100 mg/kg.
The plasma from the blood samples collected after administration of the lipid formulations of the drug from the compound of Example 1 are analysed by liquid chromatography coupled with mass spectrometric detection. The limit of quantification of the drug from the compound of Example 1 is less than or equal to 0.5 ng/mL.
Non-compartmental pharmacokinetic analysis is carried out on the mean values of the plasma concentrations of the compounds tested. […]

[2] = Solubility in aqueous medium buffered to physiological pH (phosphate 0.33M, pH 7.4); assay type: physicochemical; details: phosphate 0.33M, pH = 7.4
Experimental: The solubilities of the compounds were also measured in a medium buffered to physiological pH (cf. Table 3).

[3] = In vitro test on human Caco-2 cells, cellular transport A to B; assay type: in vitro ADME; details: human, Caco-2, drug incubated and measured, A to B, 1 or 3 μM, read-out: Papp, the drug after incubation of the drug
Experimental: (§1) The cellular transport from A to B (Apical to Basolateral) of the phosphate compounds of formula (I) and the compounds of formula (I′) (corresponding drugs) is studied in human Caco-2 cells. Each compound is deposited apically at 1 or 3 μM (in duplicate) and then incubated for 120 minutes.
(§2) Several samples are taken during the experiment; • apically: immediately after deposition (t=0) and at 120 minutes • basolaterally: at the end of the experiment (120 minutes)
(§3) The concentrations of the phosphate compound (prodrug) and/or of its hydroxylated homologue (drug) are determined by liquid chromatography coupled with mass spectrometric detection (LC-MS/MS). The limit of quantification for both entities is 2 ng/mL.
(§4) The apparent permeability (Papp) and the predicted absorbed fraction (Fabs) in humans are calculated for the prodrug, for the drug after incubation of the prodrug and for the drug after incubation of the drug (Hubatsch et al, Nat Protoc. 2007; 2(9), 2111-2119).
(§5) The experiment yield, which corresponds to the ratio (in percent) of the total amount of compound found at the end of the experiment versus that incubated, is also calculated.

human Caco-2 cells = test: as above; assay type: in vitro ADME; details: drug incubated and measured, 120 minutes; for Fabs (predicted absorbed fraction in humans), the drug after incubation of the drug: A to B, 1 or 3 μM
Experimental: as §1, §2, §3, §4, §5

[4] = system: cleaved (activated) form of caspase 3; test: Quantification of the cleaved form of caspase 3 in vivo (MSD ELISA, RS4;11 xenograft tumour lysates); parameters: species or system mice (SCID strain); details: Table 2, 25 mg/kg oral, sampling time 2 hours, treated versus control mice
Experimental: The ability of the compounds of formula (I′) to activate caspase 3 is evaluated in a xenograft model of RS4;11 leukaemia cells.
1×10^7 RS4;11 cells are grafted sub-cutaneously into immunosuppressed mice (SCID strain). 25 to 30 days after the graft, the animals are treated orally with the various compounds. After treatment, the tumour masses are recovered and lysed, and the cleaved (activated) form of caspase 3 is quantified in the tumour lysates.
The quantification is carried out using the “Meso Scale Discovery (MSD) ELISA platform” test, which specifically assays the cleaved form of caspase 3. It is expressed in the form of an activation factor corresponding to the ratio between the quantity of cleaved caspase 3 in the treated mice divided by the quantity of cleaved caspase 3 in the control mice.
The ability of the compounds of formula (I) to activate caspase 3 is evaluated in a xenograft model of RS4;11 leukaemia cells in accordance with the protocol given in Example A2.

Solubility at 10 μM [2] | Solubility at 20 μM [2] | Solubility at 50 μM [2] | Solubility at 100 μM [2] | Papp A→B at 120 min [3] [×10⁻⁶ cm/s] | Yield (experiment yield), the drug after incubation of the drug (human Caco-2 cells) | Fabs (predicted absorbed fraction in humans), the drug after incubation of the drug (human Caco-2 cells) | Structure (SMILES) | also measured
Soluble | Soluble | Insoluble | Insoluble | 0.49 | Yield (%) = 100 | Fabs (%) = 40 | Cc1c(N(C(=O)c2cc(-c3cc(F)ccc3C(=O)N3Cc4ccccc4C[C@H]3CN3CCOCC3)n(C)c2C)c2ccc(O)cc2)cc(C#N)n1C [Drug from Example 25, N-(5-Cyano-1,2-dimethyl-1H-pyrrol-3-yl)-5-(5-fluoro-2-{[(3S)-3-(morpholin-4-ylmethyl)-3,4-dihydroisoquinolin-2(1H)-yl]carbonyl}phenyl)-N-(4-hydroxyphenyl)-1,2-dimethyl-1H-pyrrole-3-carboxamide] | AUC(0-t) ([1]; Drug from Example 25 administered 3 mg/kg p.o., read-out: AUCt, compound measured: Drug from Example 25): 37 ng·h/mL; Cmax ([1]; Drug from Example 25 administered 3 mg/kg p.o., read-out: Cmax, compound measured: Drug from Example 25): 33 ng/mL; Tmax ([1]; Drug from Example 25 administered 3 mg/kg p.o., read-out: Tmax, compound measured: Drug from Example 25): 1 h; AUC(0-t) ([1]; Drug from Example 25 administered 25 mg/kg p.o., read-out: AUCt, compound measured: Drug from Example 25): 5700 ng·h/mL; Cmax ([1]; Drug from Example 25 administered 25 mg/kg p.o., read-out: Cmax, compound measured: Drug from Example 25): 3000 ng/mL; Tmax ([1]; Drug from Example 25 administered 25 mg/kg p.o., read-out: Tmax, compound measured: Drug from Example 25): 1 h
 |  |  |  | 0.21 | Yield (%) = 20 | Fabs (%) = 46 | C[C@@H]1Cc2ccccc2CN1C(=O)c1cc2c(cc1-c1cc(C(=O)N(c3ccc(O)cc3)c3cnc4c(ccn4C)c3)c3ccccn13)OCO2 [Drug from Example 4, N-(4-Hydroxyphenyl)-3-(6-{[(3R)-3-methyl-3,4-dihydroisoquinolin-2(1H)-yl]carbonyl}-1,3-benzodioxol-5-yl)-N-(1-methyl-1H-pyrrolo[2,3-b]pyridin-5-yl)-indolizine-1-carboxamide] | 
 |  |  |  |  |  |  | Cc1c(C(=O)N(c2ccc(OP(=O)([O-])[O-])cc2)c2cnn(C)c2)cc(-c2cc(F)ccc2C(=O)N2Cc3ccccc3C[C@H]2CN2CCOCC2)n1C.[Na+].[Na+] [Example 15, 4-[{[5-(5-Fluoro-2-{[(3S)-3-(morpholin-4-ylmethyl)-3,4-dihydroisoquinolin-2(1H)-yl]carbonyl}phenyl)-1,2-dimethyl-1H-pyrrol-3-yl]carbonyl}(1-methyl-1H-pyrazol-4-yl)amino]phenyl disodium phosphate] | Activation factor +/− S.E.M. [4]: 12.1 +/− 1.1
Soluble | Insoluble | Insoluble | Insoluble | 0.29 | Yield (%) = 91 | Fabs (%) = 25 | Cc1c(N(C(=O)c2cc(-c3cc(Cl)ccc3C(=O)N3Cc4ccccc4C[C@H]3CN3CCOCC3)n(C)c2C)c2ccc(O)cc2)cc(C#N)n1C [Drug from Example 20, 5-(5-Chloro-2-{[(3S)-3-(morpholin-4-ylmethyl)-3,4-dihydroisoquinolin-2(1H)-yl]carbonyl}phenyl)-N-(5-cyano-1,2-dimethyl-1H-pyrrol-3-yl)-N-(4-hydroxyphenyl)-1,2-dimethyl-1H-pyrrole-3-carboxamide] | AUC(0-t) ([1]; Drug from Example 20 administered 3 mg/kg p.o., read-out: AUCt, compound measured: Drug from Example 20): 55 ng·h/mL; Cmax ([1]; Drug from Example 20 administered 3 mg/kg p.o., read-out: Cmax, compound measured: Drug from Example 20): 39 ng/mL; Tmax ([1]; Drug from Example 20 administered 3 mg/kg p.o., read-out: Tmax, compound measured: Drug from Example 20): 1 h; AUC(0-t) ([1]; Drug from Example 20 administered 25 mg/kg p.o., read-out: AUCt, compound measured: Drug from Example 20): 10200 ng·h/mL; Cmax ([1]; Drug from Example 20 administered 25 mg/kg p.o., read-out: Cmax, compound measured: Drug from Example 20): 5520 ng/mL; Tmax ([1]; Drug from Example 20 administered 25 mg/kg p.o., read-out: Tmax, compound measured: Drug from Example 20): 2 h
 |  |  |  | 0.7 | Yield (%) = 34 | Fabs (%) = 68 | C[C@@H]1Cc2ccccc2CN1C(=O)c1cc2c(cc1-c1cc(C(=O)N(c3ccncc3)c3ccc(O)cc3)c3ccccn13)OCO2 [Drug from Example 5, N-(4-Hydroxyphenyl)-3-(6-{[(3R)-3-methyl-3,4-dihydroisoquinolin-2(1H)-yl]-carbonyl}-1,3-benzodioxol-5-yl)-N-(pyridin-4-yl)indolizine-1-carboxamide] | 
